Where a SMILES comes first, the peptide text is derived from it. The star is where a group is joined. Phenanthrenequinone2carbonyl = O=C1C(=O)c2cc(C(=O)*)ccc2-c2ccccc21; 3Phenanthroyl(9,10-dioxo) = O=C1C(=O)c2ccc(C(=O)*)cc2-c2ccccc21; X1 = O=C1C(=O)c2cc(N*)ccc2-c2ccccc21
How the values were obtained:
[1] = test system: T-cell; assay: Cytotoxicity measured against human T-cells; type: functional
[2] = test system: T-cell; assay: In vitro inhibition of human T-cell proliferation; type: functional, cell-based

SMILES	CC50 [1] [µM]	IC50 [2] [µM]
COC(=O)c1cccc2c1C=CC(=O)C2=O	> 30	
N=C(N)NCCC[C@H](NC(=O)c1ccc2c(c1)C(=O)C(=O)c1ccccc1-2)C(=O)N[C@@H](CCCNC(=N)N)C(=O)N1CCC[C@H]1C(=O)N[C@@H](CCCNC(=N)N)C(=O)NCC(=O)O (Phenanthrenequinone2carbonyl-RRPRG-OH)	> 30	21
O=C1C=Cc2ccc(O)cc2C1=O	> 30	> 30
CCCC(=O)Nc1ccc2c(c1)C(=O)C(=O)c1ccccc1-2	8.2	1.1
Nc1cccc2c1-c1ccccc1C(=O)C2=O	9	0.2
NC(=O)CC[C@H](NC(=O)c1ccc2c(c1)-c1ccccc1C(=O)C2=O)C(=O)N[C@@H](CCC(N)=O)C(=O)N1CCC[C@H]1C(=O)N[C@@H](CCC(N)=O)C(=O)N1CCC[C@H]1C(=O)O ({3Phenanthroyl(9,10-dioxo)}-QQPQP-OH)	> 30	> 30
O=C1C=C(c2ccccc2)c2ccccc2C1=O	12	0.2
N=C(N)NCCC[C@H](NC(=O)[C@@H]1CCCN1C(=O)CNC(=O)CNC(=O)c1ccc2c(c1)C(=O)C(=O)c1ccccc1-2)C(=O)NCC(=O)O (Phenanthrenequinone2carbonyl-GGPRG-OH)	> 30	16
NC(=O)CC[C@H](NC(=O)[C@@H]1CCCN1C(=O)[C@H](CCC(N)=O)NC(=O)CNC(=O)c1ccc2c(c1)-c1ccccc1C(=O)C2=O)C(=O)N1CCC[C@H]1C(=O)O ({3Phenanthroyl(9,10-dioxo)}-GQPQP-OH)	> 30	> 30
C=CCOC1=CC(=O)C(=O)c2ccccc21	> 30	> 30
N=C(N)NCCC[C@H](NC(=O)[C@@H]1CCCN1C(=O)[C@H](CCCNC(=N)N)NC(=O)[C@H](CCC(=O)O)NC(=O)c1ccc2c(c1)C(=O)C(=O)c1ccccc1-2)C(=O)NCC(=O)O (Phenanthrenequinone2carbonyl-ERPRG-OH)	> 30	19
O=C1C=C(c2ccc(Br)cc2)c2ccccc2C1=O	3	0.2
O=C1C=C(c2ccccc2Cl)c2ccccc2C1=O	12.4	0.3
NC(=O)CC[C@H](NC(=O)CNC(=O)c1ccc2c(c1)-c1ccccc1C(=O)C2=O)C(=O)NCC(=O)N[C@@H](CCC(=O)O)C(=O)N1CCC[C@H]1C(=O)O ({3Phenanthroyl(9,10-dioxo)}-GQGEP-OH)	> 30	> 30
Cc1ccc(S(=O)(=O)Nc2ccc3c(c2)C(=O)C(=O)c2ccccc2-3)cc1	> 30	6.4
NC(=O)CC[C@H](NC(=O)c1ccc2c(c1)-c1ccccc1C(=O)C2=O)C(=O)N[C@@H](CCC(=O)O)C(=O)NCC(=O)N[C@@H](CCC(N)=O)C(=O)N1CCC[C@H]1C(=O)O ({3Phenanthroyl(9,10-dioxo)}-QEGQP-OH)	> 30	16
O=C(O)CNC(=O)c1ccc2c(c1)-c1ccccc1C(=O)C2=O	> 30	6.5
N=C(N)NCCC[C@H](NC(=O)[C@@H]1CCCN1C(=O)CNC(=O)[C@H](CCC(=O)O)NC(=O)c1ccc2c(c1)C(=O)C(=O)c1ccccc1-2)C(=O)NCC(=O)O (Phenanthrenequinone2carbonyl-EGPRG-OH)	> 30	23
NC(=O)CC[C@H](NC(=O)c1ccc2c(c1)-c1ccccc1C(=O)C2=O)C(=O)N[C@@H](CCC(N)=O)C(=O)NCC(=O)N[C@@H](CCC(N)=O)C(=O)N1CCC[C@H]1C(=O)O ({3Phenanthroyl(9,10-dioxo)}-QQGQP-OH)	> 30	14.5
O=C(O)CC[C@H](NC(=O)c1ccc2c(c1)C(=O)C(=O)c1ccccc1-2)C(=O)NCC(=O)N1CCC[C@H]1C(=O)N[C@@H](CCC(=O)O)C(=O)NCC(=O)O (Phenanthrenequinone2carbonyl-EGPEG-OH)	> 30	8.8
O=C1C(=O)c2cccc([N+](=O)[O-])c2-c2ccccc21	10	
COC(=O)CCC(=O)Nc1ccc2c(c1)-c1ccccc1C(=O)C2=O	18	
N=C(N)NCCC[C@H](NC(=O)[C@H](CCC(=O)O)NC(=O)c1ccc2c(c1)C(=O)C(=O)c1ccccc1-2)C(=O)N1CCC[C@H]1C(=O)N[C@@H](CCC(=O)O)C(=O)NCC(=O)O (Phenanthrenequinone2carbonyl-ERPEG-OH)	> 30	3
CC(=O)N[C@@H](C)C(=O)N[C@H](C(=O)N[C@@H](CCC(=O)O)C(=O)NCC(=O)N[C@@H](CCC(N)=O)C(=O)N[C@@H](CC(=O)Nc1ccc2c(c1)C(=O)C(=O)c1ccccc1-2)C(=O)O)[C@@H](C)O (Ac-ATEGQD(X1)-OH)		21.4
O=C(O)CC[C@H](NC(=O)[C@@H]1CCCN1C(=O)CNC(=O)CNC(=O)c1ccc2c(c1)C(=O)C(=O)c1ccccc1-2)C(=O)NCC(=O)O (Phenanthrenequinone2carbonyl-GGPEG-OH)	> 30	19.3
O=C1C=C(c2cccc([N+](=O)[O-])c2)c2ccccc2C1=O	4	0.4
Nc1cccc2c1C(=O)C(=O)c1ccccc1-2	9.6	7.8
CC(=O)N[C@H](C(=O)N[C@@H](C)C(=O)N[C@H](C(=O)N[C@@H](CCC(=O)O)C(=O)NCC(=O)N[C@@H](CCC(N)=O)C(=O)N[C@@H](CC(=O)Nc1ccc2c(c1)C(=O)C(=O)c1ccccc1-2)C(=O)O)[C@@H](C)O)[C@@H](C)O (Ac-TATEGQD(X1)-OH)		23

SMILES	CC50 [1] [µM]	IC50 [2] [µM]
NC(=O)CC[C@H](NC(=O)[C@H](CCC(=O)O)NC(=O)c1ccc2c(c1)-c1ccccc1C(=O)C2=O)C(=O)NCC(=O)N[C@@H](CCC(N)=O)C(=O)N1CCC[C@H]1C(=O)O ({3Phenanthroyl(9,10-dioxo)}-EQGQP-OH)	> 30	7
COC(=O)CCCC(=O)Nc1ccc2c(c1)-c1ccccc1C(=O)C2=O	9	1.6
NC(=O)CC[C@H](NC(=O)CNC(=O)[C@H](CCC(=O)O)NC(=O)CNC(=O)c1ccc2c(c1)-c1ccccc1C(=O)C2=O)C(=O)N1CCC[C@H]1C(=O)O ({3Phenanthroyl(9,10-dioxo)}-GEGQP-OH)	> 30	10.5
N=C(N)NCCC[C@H](NC(=O)c1ccc2c(c1)C(=O)C(=O)c1ccccc1-2)C(=O)NCC(=O)N1CCC[C@H]1C(=O)N[C@@H](CCC(=O)O)C(=O)NCC(=O)O (Phenanthrenequinone2carbonyl-RGPEG-OH)	> 30	3.3
O=C1C=Cc2cc(C(=O)c3ccccc3)ccc2C1=O	> 30	11
N=C(N)NCCC[C@H](NC(=O)c1ccc2c(c1)C(=O)C(=O)c1ccccc1-2)C(=O)NCC(=O)N1CCC[C@H]1C(=O)N[C@@H](CCCNC(=N)N)C(=O)NCC(=O)O (Phenanthrenequinone2carbonyl-RGPRG-OH)	> 30	14
COC(=O)c1ccc2c(c1)C=CC(=O)C2=O	> 30	7.1
O=C1C=Cc2ccccc2C1=O [1,2-NAPHTHOQUINONE]	> 30	7
NC(=O)CC[C@H](NC(=O)CNC(=O)c1ccc2c(c1)-c1ccccc1C(=O)C2=O)C(=O)NCC(=O)N[C@@H](CCC(N)=O)C(=O)N1CCC[C@H]1C(=O)O ({3Phenanthroyl(9,10-dioxo)}-GQGQP-OH)	> 30	20
Nc1ccc2c(c1)-c1ccccc1C(=O)C2=O	17	
N=C(N)NCCC[C@H](NC(=O)CNC(=O)c1ccc2c(c1)C(=O)C(=O)c1ccccc1-2)C(=O)N1CCC[C@H]1C(=O)N[C@@H](CCC(=O)O)C(=O)NCC(=O)O (Phenanthrenequinone2carbonyl-GRPEG-OH)	> 30	5.5
NC(=O)CC[C@H](NC(=O)[C@@H]1CCCN1C(=O)[C@H](CCC(=O)O)NC(=O)CNC(=O)c1ccc2c(c1)-c1ccccc1C(=O)C2=O)C(=O)N1CCC[C@H]1C(=O)O ({3Phenanthroyl(9,10-dioxo)}-GEPQP-OH)	> 30	> 30
Cc1ccc(S(=O)(=O)N(c2ccc3c(c2)C(=O)C(=O)c2ccccc2-3)S(=O)(=O)c2ccc(C)cc2)cc1	5.3	
O=C1C=C(c2c(-c3ccccc3)[nH]c3ccccc23)c2ccccc2C1=O	16	2.2
N=C(N)NCCC[C@H](NC(=O)[C@@H]1CCCN1C(=O)[C@H](CCC(=O)O)NC(=O)[C@H](CCC(=O)O)NC(=O)c1ccc2c(c1)C(=O)C(=O)c1ccccc1-2)C(=O)NCC(=O)O (Phenanthrenequinone2carbonyl-EEPRG-OH)	> 30	16
Cn1cc(C2=CC(=O)C(=O)c3ccccc32)c2ccccc21	> 30	1.5
CC(=O)N[C@@H](Cc1ccccc1)C(=O)N[C@H](C(=O)N[C@@H](C)C(=O)N[C@H](C(=O)N[C@@H](CCC(=O)O)C(=O)NCC(=O)N[C@@H](CCC(N)=O)C(=O)N[C@@H](CC(=O)Nc1ccc2c(c1)C(=O)C(=O)c1ccccc1-2)C(=O)O)[C@@H](C)O)[C@@H](C)O (Ac-FTATEGQD(X1)-OH)		> 30
O=C1C(=O)c2cc([N+](=O)[O-])ccc2-c2ccccc21	10	1.6
O=C1C(=O)c2ccsc2-c2ccccc21	3.5	
O=C(O)CC[C@H](NC(=O)[C@@H]1CCCN1C(=O)[C@H](CCC(=O)O)NC(=O)CNC(=O)c1ccc2c(c1)C(=O)C(=O)c1ccccc1-2)C(=O)NCC(=O)O (Phenanthrenequinone2carbonyl-GEPEG-OH)	> 30	9
O=C1C(=O)c2ccc([N+](=O)[O-])cc2-c2ccccc21	2.8	0.2
NC(=O)CC[C@H](NC(=O)c1ccc2c(c1)-c1ccccc1C(=O)C2=O)C(=O)N[C@@H](CCC(=O)O)C(=O)N1CCC[C@H]1C(=O)N[C@@H](CCC(N)=O)C(=O)N1CCC[C@H]1C(=O)O ({3Phenanthroyl(9,10-dioxo)}-QEPQP-OH)	> 30	5
O=C1C(=O)c2cc(-c3ccsc3)ccc2-c2ccccc21	7.3	1.7
O=C(O)c1ccc2c(c1)C(=O)C(=O)c1ccccc1-2	> 30	> 30
N=C(N)NCCC[C@H](NC(=O)[C@@H]1CCCN1C(=O)[C@H](CCC(=O)O)NC(=O)CNC(=O)c1ccc2c(c1)C(=O)C(=O)c1ccccc1-2)C(=O)NCC(=O)O (Phenanthrenequinone2carbonyl-GEPRG-OH)	> 30	20
O=C1C(=O)c2ccc(NC(=O)c3ccccc3C(F)(F)F)cc2-c2ccccc21	14	
O=C(O)c1ccc2c(c1)-c1ccccc1C(=O)C2=O		> 30

— ChEMBL document CHEMBL1134488, “Potent reversible inhibitors of the protein tyrosine phosphatase CD45” (J Med Chem, 2001)
